What was measured:
Assay type in all cases: functional
OVCAR-4 = assay: Growth inhibition of human OVCAR4 cells assessed as cell growth at 5X10'-6 M after 48 hrs by sulforhodamine B assay; conditions: OVCAR-4, 48 h, read-out: Activity
NCI-H460 [1] = assay: Growth inhibition of human NCI-H460 cells assessed as cell growth at 5X10'-8 M after 48 hrs by sulforhodamine B assay; conditions: NCI-H460, 48 h, read-out: Activity
UO-31 = assay: Growth inhibition of human UO31 cells assessed as cell growth at 5X10'-6 M after 48 hrs by sulforhodamine B assay; conditions: UO-31, 48 h, read-out: Activity
T47D = assay: Growth inhibition of human T47D cells assessed as cell growth at 3X10'-9 M after 48 hrs by sulforhodamine B assay; conditions: read-out: Activity
786-0 [2] = assay: Growth inhibition of human 786-0 cells assessed as cell growth at 3X10'-7 M after 48 hrs by sulforhodamine B assay; conditions: 786-0, 48 h, read-out: Activity
SF-539 = assay: Growth inhibition of human SF539 cells assessed as cell growth at 3X10'-7 M after 48 hrs by sulforhodamine B assay; conditions: SF-539, 48 h, read-out: Activity
SNB-75 = assay: Growth inhibition of human SNB75 cells assessed as cell growth at 3X10'-9 M after 48 hrs by sulforhodamine B assay; conditions: SNB-75, 48 h, read-out: Activity
NCI-H322M = assay: Growth inhibition of human NCI-H322M cells assessed as cell growth at 3X10'-5 M after 48 hrs by sulforhodamine B assay; conditions: read-out: Activity
NCI-H522 [3] = assay: Growth inhibition of human NCI-H522 cells assessed as cell growth at 3X10'-8 M after 48 hrs by sulforhodamine B assay; conditions: NCI-H522, 48 h, read-out: Activity
CCRF-CEM = assay: Growth inhibition of human CCRF-CEM cells assessed as cell growth at 3X10'-8 M after 48 hrs by sulforhodamine B assay; conditions: read-out: Activity
A498 [4] = assay: Growth inhibition of human A498 cells assessed as cell growth at 3X10'-8 M after 48 hrs by sulforhodamine B assay; conditions: A498, 48 h, read-out: Activity
IGROV-1 = assay: Growth inhibition of human IGROV1 cells assessed as cell growth at 3X10'-5 M after 48 hrs by sulforhodamine B assay; conditions: IGROV-1, 48 h, read-out: Activity
SK-MEL-5 = assay: Growth inhibition of human SK-MEL-5 cells assessed as cell growth at 3X10'-7 M after 48 hrs by sulforhodamine B assay; conditions: SK-MEL-5, 48 h, read-out: Activity
SW-620 = assay: Growth inhibition of human SW620 cells assessed as cell growth at 3X10'-7 M after 48 hrs by sulforhodamine B assay; conditions: SW-620, 48 h, read-out: Activity
TK-10 [5] = assay: Growth inhibition of human TK10 cells assessed as cell growth at 3X10'-7 M after 48 hrs by sulforhodamine B assay; conditions: TK-10, 48 h, read-out: Activity
NCI-H460 [6] = assay: Growth inhibition of human NCI-H460 cells assessed as cell growth at 3X10'-6 M after 48 hrs by sulforhodamine B assay; conditions: NCI-H460, 48 h, read-out: Activity
COLO 205 = assay: Growth inhibition of human COLO205 cells assessed as cell growth at 3X10'-5 M after 48 hrs by sulforhodamine B assay; conditions: COLO 205, 48 h, read-out: Activity
TK-10 [7] = assay: Growth inhibition of human TK10 cells assessed as cell growth at 3X10'-5 M after 48 hrs by sulforhodamine B assay; conditions: TK-10, 48 h, read-out: Activity
[8] = Growth inhibition of human Hs 578T cells assessed as cell growth at 3X10'-8 M after 48 hrs by sulforhodamine B assay; conditions: read-out: Activity
[9] = Growth inhibition of human HCC2998 cells assessed as cell growth at 3X10'-7 M after 48 hrs by sulforhodamine B assay; conditions: HCC 2998, 48 h, read-out: Activity
SK-OV-3 = assay: Growth inhibition of human SKOV3 cells assessed as cell growth at 3X10'-7 M after 48 hrs by sulforhodamine B assay; conditions: SK-OV-3, 48 h, read-out: Activity
HCT-116 = assay: Growth inhibition of human HCT116 cells assessed as cell growth at 3X10'-6 M after 48 hrs by sulforhodamine B assay; conditions: HCT-116, 48 h, read-out: Activity
MDA-MB-231 = assay: Growth inhibition of human MDA-MB-231 cells assessed as cell growth at 3X10'-5 M after 48 hrs by sulforhodamine B assay; conditions: MDA-MB-231, 48 h, read-out: Activity
MDA-MB-435 = assay: Growth inhibition of human MDA-MB-435 cells assessed as cell growth at 3X10'-7 M after 48 hrs by sulforhodamine B assay; conditions: MDA-MB-435, 48 h, read-out: Activity
ACHN = assay: Growth inhibition of human ACHN cells assessed as cell growth at 3X10'-5 M after 48 hrs by sulforhodamine B assay; conditions: read-out: Activity
RXF 393 = assay: Growth inhibition of human RXF393 cells assessed as cell growth at 3X10'-5 M after 48 hrs by sulforhodamine B assay; conditions: RXF 393, 48 h, read-out: Activity
NCI-H522 [10] = assay: Growth inhibition of human NCI-H522 cells assessed as cell growth at 3X10'-7 M after 48 hrs by sulforhodamine B assay; conditions: NCI-H522, 48 h, read-out: Activity
HOP-92 = assay: Growth inhibition of human HOP92 cells assessed as cell growth at 3X10'-8 M after 48 hrs by sulforhodamine B assay; conditions: HOP-92, 48 h, read-out: Activity
A498 [11] = assay: Growth inhibition of human A498 cells assessed as cell growth at 3X10'-5 M after 48 hrs by sulforhodamine B assay; conditions: A498, 48 h, read-out: Activity
Malme-3M = assay: Growth inhibition of human MALME-3M cells assessed as cell growth at 3X10'-8 M after 48 hrs by sulforhodamine B assay; conditions: read-out: Activity
786-0 [12] = assay: Growth inhibition of human 786-0 cells assessed as cell growth at 3X10'-9 M after 48 hrs by sulforhodamine B assay; conditions: 786-0, 48 h, read-out: Activity
HOP-62 = assay: Growth inhibition of human HOP62 cells assessed as cell growth at 3X10'-5 M after 48 hrs by sulforhodamine B assay; conditions: HOP-62, 48 h, read-out: Activity
DU-145 = assay: Growth inhibition of human DU145 cells assessed as cell growth at 3X10'-9 M after 48 hrs by sulforhodamine B assay; conditions: DU-145, 48 h, read-out: Activity
K562 = assay: Growth inhibition of human K562 cells assessed as cell growth at 3X10'-9 M after 48 hrs by sulforhodamine B assay; conditions: K562, 48 h, read-out: Activity
NCI-H522 [13] = assay: Growth inhibition of human NCI-H522 cells assessed as cell growth at 3X10'-5 M after 48 hrs by sulforhodamine B assay; conditions: NCI-H522, 48 h, read-out: Activity
SR = assay: Growth inhibition of human SR cells assessed as cell growth at 3X10'-5 M after 48 hrs by sulforhodamine B assay; conditions: read-out: Activity
MDA-MB-468 = assay: Growth inhibition of human MDA-MB-468 cells assessed as cell growth at 3X10'-5 M after 48 hrs by sulforhodamine B assay; conditions: MDA-MB-468, 48 h, read-out: Activity

With `COc1cc(-c2nn(-c3cccc(NC(=O)Nc4ccc(Cl)c(Cl)c4)c3)cc2-c2ccncc2)ccc1Cl` the growth at 5 µM (OVCAR-4) was 6% and the growth at 0.05 µM (NCI-H460 [1]) was 102%.
In the case of `COc1cc(-c2nn(-c3cccc(NC(=O)c4cccc(C(F)(F)F)c4)c3)cc2-c2ccncc2)ccc1Cl`, the growth at 5 µM (OVCAR-4) is reported as 34%, the growth at 0.05 µM (NCI-H460 [1]) is reported as 100% and the growth at 5 µM (UO-31) is reported as 20%.
Work on `O=C(Nc1cccc(-n2cc(-c3ccncc3)c(-c3ccc(Cl)c(O)c3)n2)c1)Nc1ccc(Cl)c(C(F)(F)F)c1` yielded a growth at 0.003 µM (T47D) of 102%, a growth at 0.3 µM (786-0 [2]) of 96% and a growth at 0.3 µM (SF-539) of 89%. It also gave a growth at 0.003 µM (SNB-75) of 93%, a growth at 30 µM (NCI-H322M) of -58% and a growth at 0.03 µM (NCI-H522 [3]) of 101%. It also gave a growth at 0.03 µM (CCRF-CEM) of 97%, a growth at 0.03 µM (A498 [4]) of 91% and a growth at 30 µM (IGROV-1) of -47%. It also gave a growth at 0.3 µM (SK-MEL-5) of 89%, a growth at 0.3 µM (SW-620) of 105% and a growth at 0.3 µM (TK-10 [5]) of 101%. For the same molecule, the growth at 3 µM (NCI-H460 [6]) was 4%, the growth at 30 µM (COLO 205) was -90% and the growth at 30 µM (TK-10 [7]) was -19%. For the same molecule, the growth at 0.03 µM [8] was 88%, the growth at 0.3 µM [9] was 95% and the growth at 0.3 µM (SK-OV-3) was 95%. For the same molecule, the growth at 3 µM (HCT-116) was 4%, the growth at 30 µM (MDA-MB-231) was -60% and the growth at 0.3 µM (MDA-MB-435) was 86%. For the same molecule, the growth at 30 µM (ACHN) was 2%, the growth at 30 µM (RXF 393) was -49% and the growth at 0.3 µM (NCI-H522 [10]) was 82%. For the same molecule, the growth at 0.03 µM (HOP-92) was 76%, the growth at 30 µM (A498 [11]) was -49% and the growth at 0.03 µM (Malme-3M) was 94%. The growth at 0.003 µM (786-0 [12]) was 98%, the growth at 30 µM (HOP-62) was -17% and the growth at 0.003 µM (DU-145) was 101%. For the same molecule, the growth at 0.003 µM (K562) was 99%, the growth at 30 µM (NCI-H522 [13]) was -55% and the growth at 30 µM (SR) was -7%. For the same molecule, the growth at 30 µM (MDA-MB-468) was -43%.
Work on `O=C(Nc1cccc(-n2cc(-c3ccncc3)c(-c3ccc(Cl)c(O)c3)n2)c1)Nc1cccc(C(F)(F)F)c1` yielded a growth at 0.003 µM (T47D) of 92%, a growth at 0.3 µM (786-0 [2]) of 99% and a growth at 0.3 µM (SF-539) of 92%. It also gave a growth at 0.003 µM (SNB-75) of 91%, a growth at 30 µM (NCI-H322M) of 19% and a growth at 0.03 µM (NCI-H522 [3]) of 90%. It also gave a growth at 0.03 µM (CCRF-CEM) of 96%, a growth at 0.03 µM (A498 [4]) of 83% and a growth at 30 µM (IGROV-1) of 3%. It also gave a growth at 0.3 µM (SK-MEL-5) of 99%, a growth at 0.3 µM (SW-620) of 101% and a growth at 0.3 µM (TK-10 [5]) of 107%. It also gave a growth at 3 µM (NCI-H460 [6]) of 16%, a growth at 30 µM (COLO 205) of -14% and a growth at 30 µM (TK-10 [7]) of 7%. The growth at 0.03 µM [8] was 91%, the growth at 0.3 µM [9] was 106% and the growth at 0.3 µM (SK-OV-3) was 105%. It also gave a growth at 3 µM (HCT-116) of 23%, a growth at 30 µM (MDA-MB-231) of -5% and a growth at 0.3 µM (MDA-MB-435) of 96%. For the same molecule, the growth at 30 µM (ACHN) was 7%, the growth at 30 µM (RXF 393) was -37% and the growth at 0.3 µM (NCI-H522 [10]) was 98%. For the same molecule, the growth at 0.03 µM (HOP-92) was 77%, the growth at 30 µM (A498 [11]) was 15% and the growth at 0.03 µM (Malme-3M) was 82%. For the same molecule, the growth at 0.003 µM (786-0 [12]) was 98%, the growth at 30 µM (HOP-62) was 9% and the growth at 0.003 µM (DU-145) was 101%. For the same molecule, the growth at 0.003 µM (K562) was 94%, the growth at 30 µM (NCI-H522 [13]) was -13% and the growth at 30 µM (SR) was -9%. It also gave a growth at 30 µM (MDA-MB-468) of -27%.
Work on `O=C(Nc1cccc(-n2cc(-c3ccncc3)c(-c3ccc(Cl)c(O)c3)n2)c1)c1ccc(N2CCOCC2)c(C(F)(F)F)c1` yielded a growth at 5 µM (OVCAR-4) of 80% and a growth at 5 µM (UO-31) of 25%.

Reference: ChEMBL document CHEMBL2440076, “New triarylpyrazoles as broad-spectrum anticancer agents: design, synthesis, and biological evaluation” (Eur J Med Chem, 2013)
